Reference: patent publication US20020137929A1, “1 - (3-heterocyclylphenyl) isothiourea, -isourea, -guanidine and -amidine herbicidal agents” (Intellectual Property Department, BASF Aktiengesellschaft, priority 1998, published 2002)

Legend:
ABUTH (Velvetleaf) [1] = assay: Postemergence herbicidal evaluation; assay type: in vivo, Abutilon theophrasti; conditions: postemergence
How it was run: (§1)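 Rate range approx. 0.0156–0.500 kg/ha. Foliar application at 40 psi to ~2-week seedlings; surfactant 0.5% TWEEN 20 in 50/50 acetone/water. Evaluation 4–5 wk post-treatment by 0–9 visual injury score, means of replicate tests.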

[2] = system: CHEAL (Lambsquarters, Common); assay: Postemergence herbicidal evaluation; assay type: in vivo, Chenopodium album; conditions: postemergence
How it was run: as §1

[3] = system: IPOHE (Morningglory, Ivyleaf); assay: Postemergence herbicidal evaluation; assay type: in vivo, Ipomoea hederacea; conditions: postemergence
How it was run: as §1

ECHCG (Barnyardgrass) [4] = assay: Postemergence herbicidal evaluation; assay type: in vivo, Echinochloa crus-galli; conditions: postemergence
How it was run: as §1

SETVI (Foxtail, Green) = assay: Postemergence herbicidal evaluation; assay type: in vivo, Setaria viridis; conditions: postemergence
How it was run: as §1

ORYSAT (Rice, Tebonnet) = assay: Postemergence herbicidal evaluation; assay type: in vivo, Oryza sativa, (L.) Tebonnet; conditions: postemergence
How it was run: as §1

ZEAMX (Corn, Field) [5] = assay: Postemergence herbicidal evaluation; assay type: in vivo, Zea mays; conditions: postemergence
How it was run: as §1

ABUTH (Velvetleaf) [6] = assay: Preemergence herbicidal evaluation; assay type: in vivo, Abutilon theophrasti; conditions: rated 4-5 weeks after treatment
How it was run: (§2)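 Test compound, dissolved in aqueous acetone, was sprayed over planted soil cups at an equivalent of about 0.0156 to 0.500 kg/ha; seeds had been mixed with potting soil. Greenhouse growth followed, with visual 0-9 scoring of injury at four to five weeks.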

CASOB (Sicklepod) = assay: Preemergence herbicidal evaluation; assay type: in vivo, Cassia obtusifolia; conditions: rated 4-5 weeks after treatment
How it was run: as §2

[7] = system: CHEAL (Lambsquarters, Common); assay: Preemergence herbicidal evaluation; assay type: in vivo, Chenopodium album; conditions: rated 4-5 weeks after treatment
How it was run: as §2

[8] = system: IPOHE (Morningglory, Ivyleaf); assay: Preemergence herbicidal evaluation; assay type: in vivo, Ipomoea hederacea; conditions: rated 4-5 weeks after treatment
How it was run: as §2

ECHCG (Barnyardgrass) [9] = assay: Preemergence herbicidal evaluation; assay type: in vivo, Echinochloa crus-galli; conditions: rated 4-5 weeks after treatment
How it was run: as §2

[10] = system: GLXMAW (Soybean, Williams); assay: Preemergence herbicidal evaluation; assay type: in vivo, Glycine max, (L.) Merr. cv Williams; conditions: rated 4-5 weeks after treatment
How it was run: as §2

[11] = system: TRZAWR (Wheat, Winter, cv Riband); assay: Preemergence herbicidal evaluation; assay type: in vivo, Triticum aestivum; conditions: rated 4-5 weeks after treatment
How it was run: as §2

ZEAMX (Corn, Field) [12] = assay: Preemergence herbicidal evaluation; assay type: in vivo, Zea mays; conditions: rated 4-5 weeks after treatment
How it was run: as §2

CYPIR (Rice Flatsedge) = assay: Postemergence weed control under flooded paddy conditions; assay type: in vivo, Cyperus iria; conditions: postemergence weeds, 3-4 weeks after treatment
How it was run: (§3)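 Flood-water application, about 0.0313–0.500 kg/ha a.i. in aqueous/acetone 50/50 v/v; water depth 1.5–3 cm throughout. Weeds 3–5 cm, rice 1.5–2.5 leaf. Greenhouse; 0–9 visual rating vs control at 3–4 wk.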

CYPSE (Flatsedge) = assay: as above; assay type: in vivo, Cyperus serotinus; conditions: postemergence weeds, 3-4 weeks after treatment
How it was run: as §3

## CN(C)N1C(=O)CSC1=Nc1cc(-n2c(=O)cc(C(F)(F)F)n(C)c2=O)c(F)cc1Cl [Compound 23, 3-{4-Chloro-5-{[3-(dimethylamino)-4-oxo-2-thiazolidinylidine]amino}-2-fluorophenyl}-1-methyl-6-(trifluoromethyl)-2,4(1H,3H)-pyrimidinedione]
ABUTH (Velvetleaf) [1]; rate 0.0158 kg/ha
  ABUTH herbicidal rating: 3.0
ABUTH (Velvetleaf) [1]; rate 0.0315 kg/ha
  ABUTH herbicidal rating: 4.0
ABUTH (Velvetleaf) [1]; rate 0.0630 kg/ha
  ABUTH herbicidal rating: 5.0
[2]; rate 0.0158 kg/ha
  CHEAL herbicidal rating: 2.0
[2]; rate 0.0315 kg/ha
  CHEAL herbicidal rating: 7.0
[2]; rate 0.0630 kg/ha
  CHEAL herbicidal rating: 9.0
[3]; rate 0.0158 kg/ha
  IPOHE herbicidal rating: 4.0
[3]; rate 0.0315 kg/ha
  IPOHE herbicidal rating: 9.0
[3]; rate 0.0630 kg/ha
  IPOHE herbicidal rating: 9.0
ECHCG (Barnyardgrass) [4]; rate 0.0158 kg/ha
  ECHCG herbicidal rating: 0.0
ECHCG (Barnyardgrass) [4]; rate 0.0315 kg/ha
  ECHCG herbicidal rating: 2.0
ECHCG (Barnyardgrass) [4]; rate 0.0630 kg/ha
  ECHCG herbicidal rating: 2.0
SETVI (Foxtail, Green); rate 0.0158 kg/ha
  SETVI herbicidal rating: 2.0
SETVI (Foxtail, Green); rate 0.0315 kg/ha
  SETVI herbicidal rating: 4.0
SETVI (Foxtail, Green); rate 0.0630 kg/ha
  SETVI herbicidal rating: 4.0
ORYSAT (Rice, Tebonnet); rate 0.0158 kg/ha
  ORYSAT herbicidal rating: 2.0
ORYSAT (Rice, Tebonnet); rate 0.0315 kg/ha
  ORYSAT herbicidal rating: 2.5
ORYSAT (Rice, Tebonnet); rate 0.0630 kg/ha
  ORYSAT herbicidal rating: 4.5
ZEAMX (Corn, Field) [5]; rate 0.0158 kg/ha
  ZEAMX herbicidal rating: 3.0
ZEAMX (Corn, Field) [5]; rate 0.0315 kg/ha
  ZEAMX herbicidal rating: 3.5
ZEAMX (Corn, Field) [5]; rate 0.0630 kg/ha
  ZEAMX herbicidal rating: 5.0
ABUTH (Velvetleaf) [6]; rate 0.0156 kg/ha
  ABUTH preemergence herbicidal rating: 0.0
ABUTH (Velvetleaf) [6]; rate 0.0313 kg/ha
  ABUTH preemergence herbicidal rating: 1.0
ABUTH (Velvetleaf) [6]; rate 0.0625 kg/ha
  ABUTH preemergence herbicidal rating: 9.0
ABUTH (Velvetleaf) [6]; rate 0.1250 kg/ha
  ABUTH preemergence herbicidal rating: 9.0
ABUTH (Velvetleaf) [6]; rate 0.2500 kg/ha
  ABUTH preemergence herbicidal rating: 9.0
CASOB (Sicklepod); rate 0.0156 kg/ha
  CASOB preemergence herbicidal rating: 0.0
CASOB (Sicklepod); rate 0.0313 kg/ha
  CASOB preemergence herbicidal rating: 0.0
CASOB (Sicklepod); rate 0.0625 kg/ha
  CASOB preemergence herbicidal rating: 1.0
CASOB (Sicklepod); rate 0.1250 kg/ha
  CASOB preemergence herbicidal rating: 2.0
CASOB (Sicklepod); rate 0.2500 kg/ha
  CASOB preemergence herbicidal rating: 5.0
[7]; rate 0.0156 kg/ha
  CHEAL preemergence herbicidal rating: 0.0
[7]; rate 0.0313 kg/ha
  CHEAL preemergence herbicidal rating: 1.0
[7]; rate 0.0625 kg/ha
  CHEAL preemergence herbicidal rating: 7.0
[7]; rate 0.1250 kg/ha
  CHEAL preemergence herbicidal rating: 9.0
[7]; rate 0.2500 kg/ha
  CHEAL preemergence herbicidal rating: 9.0
[8]; rate 0.0156 kg/ha
  IPOHE preemergence herbicidal rating: 0.0
[8]; rate 0.0313 kg/ha
  IPOHE preemergence herbicidal rating: 0.0
[8]; rate 0.0625 kg/ha
  IPOHE preemergence herbicidal rating: 1.0
[8]; rate 0.1250 kg/ha
  IPOHE preemergence herbicidal rating: 5.0
[8]; rate 0.2500 kg/ha
  IPOHE preemergence herbicidal rating: 9.0
ECHCG (Barnyardgrass) [9]; rate 0.0156 kg/ha
  ECHCG preemergence herbicidal rating: 0.0
ECHCG (Barnyardgrass) [9]; rate 0.0313 kg/ha
  ECHCG preemergence herbicidal rating: 1.0
ECHCG (Barnyardgrass) [9]; rate 0.0625 kg/ha
  ECHCG preemergence herbicidal rating: 2.0
ECHCG (Barnyardgrass) [9]; rate 0.1250 kg/ha
  ECHCG preemergence herbicidal rating: 4.0
ECHCG (Barnyardgrass) [9]; rate 0.2500 kg/ha
  ECHCG preemergence herbicidal rating: 6.0
[10]; rate 0.0156 kg/ha
  GLXMAW preemergence herbicidal rating: 0.0
[10]; rate 0.0313 kg/ha
  GLXMAW preemergence herbicidal rating: 0.0
[10]; rate 0.0625 kg/ha
  GLXMAW preemergence herbicidal rating: 2.0
[10]; rate 0.1250 kg/ha
  GLXMAW preemergence herbicidal rating: 6.0
[10]; rate 0.2500 kg/ha
  GLXMAW preemergence herbicidal rating: 7.0
[11]; rate 0.0156 kg/ha
  TRZAWR preemergence herbicidal rating: 0.0
[11]; rate 0.0313 kg/ha
  TRZAWR preemergence herbicidal rating: 0.0
[11]; rate 0.0625 kg/ha
  TRZAWR preemergence herbicidal rating: 1.0
[11]; rate 0.1250 kg/ha
  TRZAWR preemergence herbicidal rating: 5.0
[11]; rate 0.2500 kg/ha
  TRZAWR preemergence herbicidal rating: 7.0
ZEAMX (Corn, Field) [12]; rate 0.0156 kg/ha
  ZEAMX preemergence herbicidal rating: 0.0
ZEAMX (Corn, Field) [12]; rate 0.0313 kg/ha
  ZEAMX preemergence herbicidal rating: 1.0
ZEAMX (Corn, Field) [12]; rate 0.0625 kg/ha
  ZEAMX preemergence herbicidal rating: 2.0
ZEAMX (Corn, Field) [12]; rate 0.1250 kg/ha
  ZEAMX preemergence herbicidal rating: 5.0
ZEAMX (Corn, Field) [12]; rate 0.2500 kg/ha
  ZEAMX preemergence herbicidal rating: 7.0
CYPIR (Rice Flatsedge); rate 0.1160 kg/ha
  Herbicidal rating CYPIR: 0.0
CYPIR (Rice Flatsedge); rate 0.2310 kg/ha
  Herbicidal rating CYPIR: 0.0
CYPIR (Rice Flatsedge); rate 0.4630 kg/ha
  Herbicidal rating CYPIR: 0.0
CYPSE (Flatsedge); rate 0.1160 kg/ha
  Herbicidal rating CYPSE: 0.0
CYPSE (Flatsedge); rate 0.2310 kg/ha
  Herbicidal rating CYPSE: 0.0
CYPSE (Flatsedge); rate 0.4630 kg/ha
  Herbicidal rating CYPSE: 0.0
